Where “and” joins values, the source holds several entries; their conditions need not be identical. Equal entries are not always repeated.
Key:
mouse = details: dose 10 times to 30 times greater than that for human; cited from earlier work
[1] = tested on: Extremely small-size miniature pigs (Microminipig); test: Test Example 1: electrocardiogram of halothane-anesthetized extremely small-size miniature pigs; assay type: in vivo; details: pig; for Heart rate (HR) / PR interval / QT interval / RR interval: 0.1 mg/kg/10 min i.v., individuals #1, #2, 0.1 mg/kg
Description: Extremely small-size miniature pigs (trade name: Microminipig, body weight: about 10 kg, male, obtained from Fuji Micra Inc.) were each anesthetized by allowing them to inhale 100% by volume oxygen and 4% by volume vaporized halothane (product of Takeda Pharmaceutical Company Limited.). After insertion of a tracheal cannula, an artificial respirator was used to ventilate it with 100% by volume oxygen and 1% by volume vaporized halothane. Here, the artificial respirator for experimental animals was set to a tidal volume of 10 mL/kg and a respiration rate of 20 strokes/min. Next, a cannula for drug administration was inserted to their left femoral vein. Then, ECG standard limb II leads was continuously recorded.
Each of the extremely small-size miniature pigs (n=2) of Example 1 was recorded for an electrocardiogram before drug administration.
(§1) Fingolimod (FTY720, product of Sigma-Aldrich Inc.) was dissolved in physiological saline (product of Otsuka Pharmaceutical Factory, Inc.) so as to have a concentration of 0.1 mg/mL.
After the evaluation of base control, the cannula for drug administration was inserted, and the above-prepared FTY720 solution was intravenously administered to each of the extremely small-size miniature pigs (n=2) of Example 1 for 10 min at a dose of 0.1 mg/kg. An electrocardiogram was recorded for 60 min from the start of administration of the FTY720 solution.

[2] = tested on: Monkeys (Macaca fascicularis); test: Test Example 2: electrocardiogram of halothane-anesthetized monkeys; assay type: in vivo; details: monkey, 50 min after the administration
Experimental: Monkeys (Macaca fascicularis, body weight: about 3 kg, male, produced in China, purchased from a domestic breeder) were each anesthetized by intravenously administering thereto sodium thiopental (product of Mitsubishi Tanabe Pharma Corporation) at 25 mg/kg. After insertion of a tracheal cannula, an artificial respirator was used to ventilate it with 100% by volume oxygen and 1% by volume vaporized halothane. Here, the artificial respirator for experimental animals was set to a tidal volume of 20 mL/kg and a respiration rate of 15 strokes/min. Next, a cannula for drug administration was inserted to their left femoral vein. Then, ECG standard limb II leads was continuously recorded.
Each of the monkeys (n=2) of Example 2 was recorded for an electrocardiogram before drug administration.
as §1
After the evaluation of base control, the cannula for drug administration was inserted, and the above-prepared FTY720 solution was intravenously administered to each of the monkeys (n=2) of Example 2 for 10 min at a dose of 0.1 mg/kg. An electrocardiogram was recorded for 60 min from the start of administration of the FTY720 solution.

[3] = 10 min after the administration
[4] = 60 min after the administration
[5] = 0.1 mg/kg/10 min i.v., individuals #1, #2, 0.1 mg/kg

CCCCCCCCc1ccc(CCC(N)(CO)CO)cc1 [FTY720, Fingolimod]
occurrence of atrioventricular block (mouse): not reported
QT interval change versus base control ([1]; 0.1 mg/kg i.v., 10 min after the administration): prolongation of QT interval was observed
PR interval change versus base control ([1]; 0.1 mg/kg i.v., 60 min after the administration): prolongation of PR interval was also observed
Heart rate (HR) [1, 3]: 137 beats/min and 192 beats/min
PR interval [1, 3]: 78 ms and 71 ms
QT interval [1, 3]: 271 ms and 221 ms
RR interval [1, 3]: 438 ms and 311 ms
Heart rate (HR) [1, 4]: 197 beats/min and 108 beats/min
PR interval [1, 4]: 75 ms and 89 ms
QT interval [1, 4]: 227 ms and 271 ms
RR interval [1, 4]: 304 ms and 552 ms
PR interval change versus base control ([2]; 0.1 mg/kg i.v.): prolongation of PR interval was observed
Heart rate (HR) ([2]; 0.1 mg/kg/10 min i.v., individuals #1, #2): 105 beats/min
Heart rate (HR) [2, 5]: 104 beats/min
PR interval [2, 5]: 71 ms and 110 ms

Reference: US10750729B2, “Pig for atrioventricular block model, monkey for atrioventricular block model, guinea pig for atrioventricular block model, and use thereof” (Toho University, priority 2012, dated 2020)
